Test results as given in patent US20070249709A1, “Crystal forms of (S)-(8(2,6-dichlorophenyl)-6-fluoro-2,3-dihydro benzo[b][1,4]dioxin-2-yl)methanamine hydrochloride salt” (Wyeth, priority 2006, published 2007).
Entries after “also recorded” stand apart in the source; their conditions may differ. Structures can show the parent of a compound that is named as a salt.

What was measured:
Type in all cases: physicochemical
[1] = Thermal stability of crystal forms under vacuum and 50° C.; settings: vacuum
Procedure: Forms I, II and III were placed in oven at 50° C. and under vacuum to assess their thermal stability.

[2] = Solution mediated transformation (reslurry stability experiments at 25° C.); settings: for Stability on slurrying (summary of Table 6): water or organic solvent, hydrochloride
From the text: The mixtures were then filtered and the solids obtained were characterized by one or more methods of XRPD, DSC and TGA.

[3] = Grinding test; settings: manually ground, ambient conditions; hydrochloride
From the text: Samples of Form I and Form II were manually ground and the resulting powders were characterized by one or more methods of XRPD, DSC and TGA.

[4] = Hygroscopicity by dynamic vapor sorption (DVS); settings: for Reversibility of DVS mass change / Crystal form stability at high humidity (DVS): hydrochloride; for Crystal form stability at high humidity (DVS): high RH
From the text: The hygroscopicity (the ability to absorb water vapor from the surrounding atmosphere) of Forms I and II was explored by dynamic vapor sorption (DVS) experiments. […] When RH was scanned from 70% to 100%, significant mass change was observed (up to about 4.5%). […] When RH continued to be scanned from 50% to 0%, the sample lost water (weight). […] A second cycle of scanning indicated a new absorption behavior when RH was raised from 50% to 100%.
The starting RH was about 50%, and only about 1% of mass change was observed when RH was scanned to 100% RH. When RH was scanned back to 50%, the mass change appeared reversible. The mass change was very slow when RH continued to be scanned from 50% to 10%. When RH was scanned from 10% to 0%, the sample lost about 2.7% of mass (water).

[5] = Slurry of a mixture of Form I and Form III in a solvent, crystal form by XRPD/DSC; settings: for Final Form, Slurry @ RT: about 2 days
Procedure: A mixture of Form I and Form III (2θ-50 wt % of Form III) was slurried in a solvent (see Table 5) with stirring at room temperature for about 2 days. The slurry was then filtered at room temperature. The solid was dried at 50° C. under vacuum for overnight. The solid obtained by the filtration was characterized by XRPD both before and after the drying at 50° C.

[6] = Heating of a mixture of Form I and Form III
Procedure: A mixture of Form I and Form III (2θ-50 wt % of Form III) was heated to 110° C. at ambient pressure and kept at this temperature and pressure for 4 hours.
A mixture of Form I and Form III (2θ-50 wt % of Form III) was placed in an oven at 50° C. and under vacuum for 72 hours.

[7] = RH scanned from 100% back to 50%, room temperature

NC[C@H]1COc2cc(F)cc(-c3c(Cl)cccc3Cl)c2O1 [Form III, (S)-(8-(2,6-dichlorophenyl)-6-fluoro-2,3-dihydrobenzo[b][1,4]dioxin-2-yl)methanamine hydrochloride]
Final Form ([1]; 20 hr): Form I + Form III | Stability on slurrying (summary of Table 6) [2]: less stable under some conditions

NC[C@H]1COc2cc(F)cc(-c3c(Cl)cccc3Cl)c2O1 [Form II, (S)-(8-(2,6-dichlorophenyl)-6-fluoro-2,3-dihydrobenzo[b][1,4]dioxin-2-yl)methanamine hydrochloride]
Solid form After grinding [3]: did not lose its crystal structure; also recorded: Form II | DVS mass (water) loss ([4]; RH scanned from 10% to 0%, room temperature): about 2.7% | Reversibility of DVS mass change [4, 7]: reversible | DVS mass change ([4]; RH scanned from about 50% to 100%, room temperature (FIG. 8)): about 1% | Crystal form stability at high humidity (DVS) ([4]; room temperature): substantially stable even under high humidity | Relative thermal stability (retention of crystal lattice integrity) [1]: more stable than Form III | Final Form ([1]; 72 hr): Form II | Final form, Sample from wet filter cake ([2]; reslurry in tBME, 30 mins): I + II | Stability on slurrying (summary of Table 6) [2]: stable in water

NC[C@H]1COc2cc(F)cc(-c3c(Cl)cccc3Cl)c2O1 [I & III, (S)-(8-(2,6-dichlorophenyl)-6-fluoro-2,3-dihydrobenzo[b][1,4]dioxin-2-yl)methanamine hydrochloride]
Final Form, Slurry @ 50° C. ([5]; Isopropyl acetate): by DSC (I and minor III) | Final Form, Slurry @ RT ([5]; Isopropyl acetate): DSC (I and minor III) | Final Form, Slurry @ RT ([5]; Toluene): DSC (I and minor III) | Resulting solid form (XRPD) ([6]; 110° C., ambient pressure, 4 hours): anhydrous Form I | Resulting solid form (XRPD) ([6]; oven at 50° C., under vacuum, 72 hours): anhydrous Form I

NC[C@H]1COc2cc(F)cc(-c3c(Cl)cccc3Cl)c2O1 [Form I, (S)-(8-(2,6-dichlorophenyl)-6-fluoro-2,3-dihydrobenzo[b][1,4]dioxin-2-yl)methanamine hydrochloride]
Solid form After grinding [3]: some of Form I is changed into Form III | DVS mass change ([4]; RH from about 50% to 70%, room temperature (FIG. 3)): little mass change | Water absorption (DVS) ([4]; RH raised from 0% only to about 70% (FIG. 4)): absorbed very little water | DVS mass change ([4]; RH scanned from 70% to 100%, room temperature): up to 4.5% | DVS mass change remaining [4, 7]: about 2.7% | Reversibility of DVS mass change [4, 7]: substantially irreversible | Crystal form stability at high humidity (DVS) ([4]; room temperature): may be converted into another form at high RH | Relative thermal stability (retention of crystal lattice integrity) [1]: more stable than Form III | Final Form ([1]; 48 hr): Form I | Stability on slurrying (summary of Table 6) [2]: stable in organic solvents
